Experimental findings from ChEMBL document CHEMBL4219269, “Synthesis and anti-staphylococcal activity of novel bacterial topoisomerase inhibitors with a 5-amino-1,3-dioxane linker moiety” (Bioorg Med Chem Lett, 2018) are described below.

Converted amounts (≈) assume the structure as drawn.

Data set [1] has as its system Staphylococcus aureus. As to the kind of experiment: Antibacterial activity against methicillin-sensitive Staphylococcus aureus ATCC 29213 by CLSI method. It counts as functional.
Data set [2] concerns the target T1, Voltage-gated inwardly rectifying potassium channel KCNH2 (Homo sapiens, UniProt Q12809). As to the kind of experiment: Inhibition of human ERG expressed in CHOK1 cells by patch clamp assay. The format is cell-based.
Data set [3] concerns Staphylococcus aureus. As to the kind of experiment: Antibacterial activity against methicillin-resistant Staphylococcus aureus USA300 by CLSI method. It counts as functional.
A short description of data set [4]: Inhibition of Staphylococcus aureus topoisomerase-4-mediated kinetoplast DNA decatenation after 30 mins by agarose gel electrophoresis.
In a further data set the test system is K562. Nature of the data set: Antiproliferative activity against human K562 cells. The format is cell-based.
Data set [5] can be described thus: Inhibition of human topoisomerase-2 in etoposide-resistant K/VP.5 cells assessed as growth inhibition.
For the next data set, the species on record is Homo sapiens. Nature of the data set: Inhibition of human topoisomerase-2 mediated kinetoplast DNA decatenation assessed as remaining activity at 100 uM relative to control.
Data set [6] is described as follows: Selectivity ratio of IC50 for human K562 cells to MIC for methicillin-sensitive Staphylococcus aureus ATCC 29213. It counts as toxicity.
The target in data set [7] is T1, Voltage-gated inwardly rectifying potassium channel KCNH2. Nature of the data set: Inhibition of human ERG expressed in CHO cells using -80 mV holding potential measured after 3 mins. The format is cell-based.
A further data set has as its target DNA gyrase (Staphylococcus aureus, UniProt P0A0K8+P20831). Nature of the data set: Inhibition of Staphylococcus aureus DNA gyrase supercoiling activity using pBR322 as substrate after 30 mins by agarose gel electrophoresis. It counts as protein-complex assay.

T1 sequence (Q12809 whole entry): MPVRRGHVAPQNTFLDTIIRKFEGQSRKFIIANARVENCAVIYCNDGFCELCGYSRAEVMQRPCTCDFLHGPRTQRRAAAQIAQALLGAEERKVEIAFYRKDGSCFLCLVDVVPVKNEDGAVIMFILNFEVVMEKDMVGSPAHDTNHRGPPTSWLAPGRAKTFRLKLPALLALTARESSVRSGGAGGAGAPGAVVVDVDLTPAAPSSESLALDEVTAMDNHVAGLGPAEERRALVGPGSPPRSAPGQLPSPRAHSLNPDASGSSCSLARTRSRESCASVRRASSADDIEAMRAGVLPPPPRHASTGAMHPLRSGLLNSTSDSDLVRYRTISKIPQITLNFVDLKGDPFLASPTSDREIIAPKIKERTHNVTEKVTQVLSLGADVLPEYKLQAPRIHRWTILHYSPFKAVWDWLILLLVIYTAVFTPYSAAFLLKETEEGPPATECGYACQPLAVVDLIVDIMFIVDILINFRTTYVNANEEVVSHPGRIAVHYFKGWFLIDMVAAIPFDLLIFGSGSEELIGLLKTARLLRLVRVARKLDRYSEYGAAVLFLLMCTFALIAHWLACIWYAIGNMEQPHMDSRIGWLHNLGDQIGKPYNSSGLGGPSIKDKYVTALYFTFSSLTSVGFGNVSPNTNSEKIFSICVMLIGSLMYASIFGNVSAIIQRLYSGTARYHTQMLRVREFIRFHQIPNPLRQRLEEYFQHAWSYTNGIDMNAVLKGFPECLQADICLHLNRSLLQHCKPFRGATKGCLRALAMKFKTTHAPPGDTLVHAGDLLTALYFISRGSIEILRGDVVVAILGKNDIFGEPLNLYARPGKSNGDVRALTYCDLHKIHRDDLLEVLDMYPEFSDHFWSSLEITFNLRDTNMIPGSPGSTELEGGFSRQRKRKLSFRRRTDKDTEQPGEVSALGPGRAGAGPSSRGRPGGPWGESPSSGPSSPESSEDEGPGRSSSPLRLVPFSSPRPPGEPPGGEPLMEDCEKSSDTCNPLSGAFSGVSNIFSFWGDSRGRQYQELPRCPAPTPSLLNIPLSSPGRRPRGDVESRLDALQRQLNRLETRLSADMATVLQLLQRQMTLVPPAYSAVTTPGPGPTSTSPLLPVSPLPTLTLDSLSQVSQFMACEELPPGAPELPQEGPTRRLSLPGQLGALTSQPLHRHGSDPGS
Chain of DNA gyrase (P0A0K8 whole entry): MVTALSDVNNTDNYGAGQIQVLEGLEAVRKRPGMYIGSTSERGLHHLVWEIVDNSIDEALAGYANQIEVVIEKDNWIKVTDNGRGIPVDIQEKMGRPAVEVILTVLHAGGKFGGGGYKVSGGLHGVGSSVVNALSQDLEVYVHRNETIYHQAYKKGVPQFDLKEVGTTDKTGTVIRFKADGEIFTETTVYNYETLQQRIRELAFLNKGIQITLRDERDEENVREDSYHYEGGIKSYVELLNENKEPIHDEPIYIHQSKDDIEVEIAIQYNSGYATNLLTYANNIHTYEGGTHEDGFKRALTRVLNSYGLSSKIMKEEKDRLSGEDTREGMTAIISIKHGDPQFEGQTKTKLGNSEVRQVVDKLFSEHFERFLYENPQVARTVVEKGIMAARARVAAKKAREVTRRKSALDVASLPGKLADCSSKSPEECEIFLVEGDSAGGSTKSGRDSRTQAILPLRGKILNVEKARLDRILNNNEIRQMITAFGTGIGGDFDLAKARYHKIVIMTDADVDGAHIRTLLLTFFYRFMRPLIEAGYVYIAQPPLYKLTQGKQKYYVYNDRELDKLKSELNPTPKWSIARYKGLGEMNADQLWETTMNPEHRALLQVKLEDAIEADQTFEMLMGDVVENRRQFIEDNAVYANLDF
Chain of DNA gyrase (P20831 whole entry): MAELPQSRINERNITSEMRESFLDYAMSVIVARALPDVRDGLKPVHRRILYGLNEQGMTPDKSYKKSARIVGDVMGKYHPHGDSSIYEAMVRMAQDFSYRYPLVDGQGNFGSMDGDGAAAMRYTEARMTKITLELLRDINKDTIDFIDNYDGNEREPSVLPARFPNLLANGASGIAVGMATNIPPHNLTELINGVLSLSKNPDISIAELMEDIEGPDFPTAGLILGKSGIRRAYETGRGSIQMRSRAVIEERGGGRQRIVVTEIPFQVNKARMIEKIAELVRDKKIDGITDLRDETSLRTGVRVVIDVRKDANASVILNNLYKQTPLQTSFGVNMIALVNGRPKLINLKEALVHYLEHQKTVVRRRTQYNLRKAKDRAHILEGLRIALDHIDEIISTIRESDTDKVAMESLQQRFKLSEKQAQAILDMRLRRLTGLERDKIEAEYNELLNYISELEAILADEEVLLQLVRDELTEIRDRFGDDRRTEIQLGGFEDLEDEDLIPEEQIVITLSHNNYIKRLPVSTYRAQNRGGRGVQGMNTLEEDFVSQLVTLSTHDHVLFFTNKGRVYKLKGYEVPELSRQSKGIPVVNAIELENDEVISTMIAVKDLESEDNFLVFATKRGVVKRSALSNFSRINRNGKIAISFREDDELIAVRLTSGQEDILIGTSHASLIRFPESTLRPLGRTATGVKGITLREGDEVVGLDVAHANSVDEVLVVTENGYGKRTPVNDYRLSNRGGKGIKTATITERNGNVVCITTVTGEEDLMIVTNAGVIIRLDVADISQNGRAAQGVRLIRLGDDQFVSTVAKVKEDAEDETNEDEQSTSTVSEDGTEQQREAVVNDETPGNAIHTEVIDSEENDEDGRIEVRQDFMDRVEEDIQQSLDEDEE

With `COc1ccc2nccc(CC[C@H]3OC[C@H](NCc4ccc5c(n4)NC(=O)CS5)CO3)c2c1`, the MIC against Staphylococcus aureus [1] and with Staphylococcus aureus [3] was 0.5 µg/mL (≈ 1.07 µM) throughout. In addition, the IC50 is 1.3 µM in [2], above 100 µM in data set [4], 31 µM in the data set with K562 and 34 µM in data set [5]. Also, the Activity in the data set filed under Homo sapiens came to 91.1%.

As for `COc1ccc2nccc(CC[C@H]3OC[C@H](NCc4ccc(Cl)c(Cl)c4)CO3)c2c1`, the IC50 in data set [2] is 4.8 µM; in data set [4] it was above 100 µM; in the data set on K562, 20 µM; in data set [5], 15 µM. Besides, the MIC in the data set with Staphylococcus aureus [3] was found to be 0.5 µg/mL (≈ 1.12 µM). Also, the Activity in the data set listed under Homo sapiens came to 93.2%.

In the data set on Staphylococcus aureus [1], `COc1ccc2nccc(CC[C@H]3OC[C@H](NCc4cccc(Cl)c4)CO3)c2c1` had an MIC of 32 µg/mL (≈ 77.5 µM).

Turning to `COc1ccc2nccc(CCN3CCC(NCc4ccc5c(c4)OCCO5)CC3)c2c1`, the IC50 in [2] was found to be 0.81 µM; with K562 it was 10 µM; in data set [5], 12 µM.

For `COc1ccc2nccc(CC[C@H]3OC[C@H](NCc4cc5c(cn4)OCCC5)CO3)c2c1`, the MIC in the data set with Staphylococcus aureus [1] worked out at 1 µg/mL (≈ 2.3 µM); against Staphylococcus aureus [3] it was 2 µg/mL (≈ 4.59 µM). Also, the IC50 in [2] is 12 µM; in data set [4] it was 25 to 50 µM; in the data set with K562, 32 µM; in [5], 40 µM. Further, the Activity in the data set listed under Homo sapiens came out at 93.8%.

As for `COc1ccc2nccc(CC[C@H]3OC[C@H](NCc4ccc5c(c4)OCCO5)CO3)c2c1`, the MIC in the data set with Staphylococcus aureus [1] was 0.25 to 1 µg/mL (≈ 0.573 to 2.29 µM); in the data set on Staphylococcus aureus [3], 0.5 µg/mL (≈ 1.15 µM). Besides, the IC50 in [2] amounted to 5.1 µM; in [4], 14 µM; in the data set with K562, 7.4 µM; in data set [5] it was 8.8 µM. Also, the Activity in the data set listed under Homo sapiens is 84.2%. Further, the selectivity ratio in data set [6] was found to be 3.5.

For the compound `O=c1ccc2ncc(=O)n3c2n1C[C@H]3CN1CCC(NCc2cc3c(cn2)OCCC3)CC1` [GEPOTIDACIN], the IC50 in data set [7] was 1310 µM.

`COc1ccc2nccc(CCN3CCC(NCc4ccc(Cl)c(Cl)c4)CC3)c2c1`: the IC50 in data set [2] came out at 1 µM.

The compound `COc1ccc2nccc(CC[C@H]3OC[C@H](NCc4ccc(Cl)cn4)CO3)c2c1` had an MIC with Staphylococcus aureus [1] of 8 µg/mL (≈ 19.3 µM).

`COc1ccc2nccc(CC[C@H]3OC[C@H](NCc4ccccc4Cl)CO3)c2c1`: the MIC against Staphylococcus aureus [1] was above 64 µg/mL.

In the data set on Staphylococcus aureus [3], `CN[C@H](CC(C)C)C(=O)N[C@H]1C(=O)N[C@@H](CC(N)=O)C(=O)N[C@H]2C(=O)N[C@H]3C(=O)N[C@H](C(=O)N[C@H](C(=O)O)c4cc(O)cc(O)c4-c4cc3ccc4O)[C@H](O)c3ccc(c(Cl)c3)Oc3cc2cc(c3O[C@@H]2O[C@H](CO)[C@@H](O)[C@H](O)[C@H]2O[C@H]2C[C@](C)(N)[C@H](O)[C@H](C)O2)Oc2ccc(cc2Cl)[C@H]1O` [VANCOMYCIN] had an MIC of 1 to 2 µg/mL (≈ 0.69 to 1.38 µM).

`COc1ccc2nccc(CC[C@H]3CC[C@H](NCc4ccc5c(c4)OCCO5)CC3)c2c1`: the IC50 amounted to 0.26 µM in data set [2], 4.2 µM with K562 and 4.5 µM in [5].

In turn, `O=C(O)c1cn(C2CC2)c2cc(N3CCNCC3)c(F)cc2c1=O` [CIPROFLOXACIN] displayed an IC50 in data set [4] of 14.3 µM. In addition, the Activity in the data set filed under Homo sapiens is 85.5%.

Turning to `COc1ccc2nccc(CC[C@H]3OC[C@H](NCc4ccc(Cl)cc4)CO3)c2c1`, the MIC against Staphylococcus aureus [1] was 1 µg/mL (≈ 2.42 µM); with Staphylococcus aureus [3] it was 4 µg/mL (≈ 9.69 µM). Moreover, the IC50 in [2] is 2 µM; at DNA gyrase it was 1.2 µM; in data set [4] it was above 100 µM; with K562, 12 µM; in data set [5], 16 µM. The Activity in the data set listed under Homo sapiens is 97.8%.

As for `COc1ccc2nccc(CC[C@H]3CC[C@H](NCc4ccc5c(n4)NC(=O)CO5)CC3)c2c1`, the results for the half-maximal inhibitory concentration (IC50) (in data set [2]; in the data set with K562; in data set [5]) were 0.41 µM, 12 µM and 11 µM, respectively.

Regarding `COc1ccc2nccc(CC[C@H]3OC[C@H](NCc4cc5c(cn4)OCCO5)CO3)c2c1`, the MIC was 1 to 2 µg/mL (≈ 2.29 to 4.57 µM) with Staphylococcus aureus [1] and 2 µg/mL (≈ 4.57 µM) with Staphylococcus aureus [3]. The IC50 in data set [2] turned out to be 9.5 µM; in data set [4] it was 50 µM; with K562, 40 µM; in [5], 48 µM. For the same compound, the Activity in the data set listed under Homo sapiens was 95.1%.

For `COc1ccc2nccc(CCN3CCC(NCc4ccc5c(n4)NC(=O)CO5)CC3)c2c1`, the values for the half-inhibitory concentration (IC50) (in [2]; with K562; in [5]) were 3.8 µM, 19 µM and 16 µM, respectively.

`COc1ccc2nccc(CC[C@H]3OC[C@H](NCc4cccnc4)CO3)c2c1` displayed an MIC against Staphylococcus aureus [1] above 64 µg/mL.

On to `COc1cc([C@@H]2c3cc4c(cc3[C@@H](O[C@@H]3O[C@@H]5CO[C@@H](C)O[C@H]5[C@H](O)[C@H]3O)[C@H]3COC(=O)[C@H]23)OCO4)cc(OC)c1O` [ETOPOSIDE], for which the IC50 in the data set on K562 came to 0.3 µM; in data set [5] it was 5.1 µM. The Activity in the data set filed under Homo sapiens is 33.6%.

As for `COc1ccc2nccc(CC[C@H]3OC[C@H](NCc4ccc5c(n4)NC(=O)CO5)CO3)c2c1`, the MIC against Staphylococcus aureus [1] stood at 0.5 µg/mL (≈ 1.11 µM); in the data set with Staphylococcus aureus [3] it was 1 µg/mL (≈ 2.22 µM). Further, the half-maximal inhibitory concentration (IC50) in data set [2] is 2.5 µM; in data set [4], above 100 µM; with K562, 24 µM; in data set [5], 44 µM. In the data set listed under Homo sapiens, the Activity was 99.1%.

On to `COc1ccc2nccc(CC[C@H]3CC[C@H](NCc4ccc(Cl)c(Cl)c4)CC3)c2c1`, for which, in [2], the IC50 is 2.3 µM.

As to `COc1ccc2nccc(CCN3CCC(NCc4cc5c(cn4)OCCO5)CC3)c2c1`, the IC50 came to 1.9 µM in data set [2], 28 µM in the data set with K562 and 22 µM in data set [5].

With `COc1ccc2nccc(CC[C@H]3OC[C@H](NCc4ccc5c(c4)NC(=O)CO5)CO3)c2c1`, the MIC is 1 to 2 µg/mL (≈ 2.22 to 4.45 µM) against Staphylococcus aureus [1] and 1 µg/mL (≈ 2.22 µM) in the data set with Staphylococcus aureus [3]. In data set [4], this compound returned a 50% inhibitory concentration (IC50) above 100 µM.

Consider `COc1ccc2nccc(CC[C@H]3CC[C@H](NCc4cc5c(cn4)OCCO5)CC3)c2c1`, for which the IC50 in [2] worked out at 0.94 µM; in the data set on K562, 7.5 µM; in [5] it was 5.7 µM.

On to `COc1ccc2nccc(CC[C@H]3OC[C@H](NCc4ccccc4)CO3)c2c1`, for which the MIC against Staphylococcus aureus [1] is above 64 µg/mL.

Compound `COc1ccc2nccc(CC[C@H]3OC[C@H](NCc4ccccn4)CO3)c2c1` returned a minimum inhibitory concentration (MIC) with Staphylococcus aureus [1] of 8 µg/mL (≈ 21.1 µM).

For orientation: MIC means the smallest concentration in the dilution series that meets the test's criterion for growth inhibition. Read a low MIC as a more susceptible organism. The IC50 is the concentration that inhibits the measured activity by half.
